Where “and” joins values, the source holds several entries; their conditions need not be identical. Equal values may be shown once.
Legend:
Assay type in all cases: in vivo
Annual Bluegrass = assay: Pre-emergent herbicidal activity (Table A); settings: pre-emergence, Anbg, 11.2 kg/ha, 10-14 days, read-out: herbicidal rating (% inhibition)
In short: (§1)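 Seeds were sown on compacted topsoil and covered with soil into which test compound (in acetone or water carrier) had been mixed at 11.2 kg/ha. Pans were kept watered on a greenhouse bench, and percent inhibition was scored as a rating about 10-14 days (usually 11) after treatment.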

Indian Mustard = assay: Pre-emergent herbicidal activity (Table A); settings: Brassica juncea, pre-emergence, Inmu, 11.2 kg/ha, 10-14 days, read-out: herbicidal rating (% inhibition)
In short: as §1

Seedling Johnsongrass = assay: Pre-emergent herbicidal activity (Table A); settings: Sorghum halepense, pre-emergence, Sejg, 11.2 kg/ha, 10-14 days, read-out: herbicidal rating (% inhibition)
In short: as §1

Wild Buckwheat = assay: Pre-emergent herbicidal activity (Table A); settings: Fallopia convolvulus, pre-emergence, Wibw, 11.2 kg/ha, 10-14 days, read-out: herbicidal rating (% inhibition)
In short: as §1

Hese = assay: plant injury after spraying emerged plants (Table D); parameters: scale not given here
In short: (§2)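 Seeds or perennial propagules were pressed onto steam-sterilized sieved silt loam topsoil and covered with 1.27 cm of a 50:50 topsoil and peat moss/vermiculite/wetting agent mix. Pans were kept on a greenhouse bench over capillary mat and subirrigated as needed.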

Prmi = assay: as above; parameters: scale not given here
In short: as §2

Rice = assay: as above; parameters: scale not given here
In short: as §2

Vele = assay: as above; parameters: scale not given here
In short: as §2

Wibw = assay: as above; parameters: scale not given here
In short: as §2

Cotz = assay: as above; parameters: scale not given here
Description: (§3) Topsoil (silt loam) is sieved through a screen having 1.27 cm openings. In some of the tests the soil was mixed with fertilizer (1225 g/cu. m of 12/5/9 containing isobutylidene diurea), while in other tests the fertilizer was omitted. This mixture is steam sterilized and then placed in aluminum pans 6.985 cm deep having ten holes in the bottom each 0.635 cm in diameter. The soil mixture is compacted to a depth of 1.27 cm. from the top of the pan. A predetermined number of seeds of each of several dicotyledonous and monocotyledonous annual plant species and/or vegetative propagules for the perennial plant species are placed on the soil and pressed into the soil surface. The seeds and/or vegetative propagules are covered with 1.27 cm of a mixture of 50% topsoil and 50% of a mixture of Canadian sphagnum peat moss, vermiculite and a wetting agent. The pans are then placed on a capillary mat on a greenhouse bench and subirrigated as needed. After the plants reach the desired stage (9 to 14 days, 1 to 3 true leaf stage), each pan (except the control pans) is removed to a spraying chamber and sprayed by means of an atomizer, operating at a spray pressure of 170.3 kPa ([…]) at the application rates noted in Table D. In the spray solution is an amount of an emulsifying agent mixture (35% butylamine salt of dodecylbenzenesulfonic acid and 65% tall oil condensed with ethylene oxide in the ratio of 11 mols of ethylene oxide/mol of tall oil) to give a spray solution or suspension. The spray solution or suspension contains a sufficient amount of the candidate chemical in order to give application rates of the active ingredient corresponding to those shown in Table D below while applying a total amount of solution or suspension equivalent to 1870 L/Ha (200 gallons/acre). The pans are returned to the greenhouse and watered as before and the injury to the plants as compared to the control pans is observed at approximately 10-14 days (usually 11 days).
(§4) In the following Table D the legends used to identify the plant species are the same as those used in the preceding Table B.

Jiwe = assay: as above; parameters: scale not given here
Description: as §3, §4

Rape = assay: as above; parameters: scale not given here
Description: as §3, §4

COC(=O)c1c(OC)nc(C(F)(F)F)c(-c2nnc(C)o2)c1CC(C)C [Compound 103, 3-pyridinecarboxylic acid, 2-methoxy-5-(5-methy1-1,3,4-oxadiazo1-2-yl)-4-(2-methylpropyl)-6-(trifluoromethyl)-, methyl ester]
1: plant injury rating, Hese (Hese; 1.1219 kg/ha) | plant injury rating, Wibw (Wibw; 1.1219 kg/ha) | plant injury rating, Rape (Rape; 1.1219 kg/ha)
3: plant injury rating, Hese (Hese; 5.6050 kg/ha) | plant injury rating, Rape (Rape; 5.6050 kg/ha)
2: plant injury rating, Vele (Vele; 5.6050 kg/ha) | plant injury rating, Wibw (Wibw; 5.6050 kg/ha) | plant injury rating, Jiwe (Jiwe; 1.1219 kg/ha) | plant injury rating, Jiwe (Jiwe; 5.6050 kg/ha)
75 to 100%: inhibition at 11200 g/ha (Annual Bluegrass) | inhibition at 11200 g/ha (Indian Mustard) | inhibition at 11200 g/ha (Seedling Johnsongrass) | inhibition at 11200 g/ha (Wild Buckwheat)
0: plant injury rating, Hese (Hese; 0.0701 kg/ha) | plant injury rating, Hese (Hese; 0.2803 kg/ha) | plant injury rating, Prmi (Prmi; 0.0701 kg/ha) | plant injury rating, Prmi (Prmi; 0.2803 kg/ha) | plant injury rating, Prmi (Prmi; 1.1219 kg/ha) | plant injury rating, Prmi (Prmi; 5.6050 kg/ha) | plant injury rating, Rice (Rice; 0.0701 kg/ha) | plant injury rating, Rice (Rice; 0.2803 kg/ha) | plant injury rating, Rice (Rice; 1.1219 kg/ha) | plant injury rating, Rice (Rice; 5.6050 kg/ha) | plant injury rating, Vele (Vele; 0.0701 kg/ha) | plant injury rating, Vele (Vele; 0.2803 kg/ha) | plant injury rating, Vele (Vele; 1.1219 kg/ha) | plant injury rating, Wibw (Wibw; 0.0701 kg/ha) | plant injury rating, Wibw (Wibw; 0.2803 kg/ha) | plant injury rating, Cotz (Cotz; 0.0701 kg/ha) | plant injury rating, Cotz (Cotz; 0.2803 kg/ha) | plant injury rating, Cotz (Cotz; 1.1219 kg/ha) | plant injury rating, Cotz (Cotz; 5.6050 kg/ha) | plant injury rating, Jiwe (Jiwe; 0.0701 kg/ha) | plant injury rating, Jiwe (Jiwe; 0.2803 kg/ha) | plant injury rating, Rape (Rape; 0.0701 kg/ha) | plant injury rating, Rape (Rape; 0.2803 kg/ha)

COC(=O)c1c(OC)nc(C(F)(F)F)c(C2SCCS2)c1CC(C)C [Compound 93, 3-pyridinecarboxylic acid, 5-(1,3-dithiolan-2-yl)-2-methoxy-4-(2-methylpropyl)-6-(trifluoromethyl)-, methyl ester]
3: plant injury rating, Hese (Hese; 0.2803 kg/ha) | plant injury rating, Hese (Hese; 1.1210 kg/ha) | plant injury rating, Hese (Hese; 5.6050 kg/ha) | plant injury rating, Vele (Vele; 5.6050 kg/ha) | plant injury rating, Jiwe (Jiwe; 1.1210 kg/ha) | plant injury rating, Jiwe (Jiwe; 5.6050 kg/ha) | plant injury rating, Rape (Rape; 1.1210 kg/ha) | plant injury rating, Rape (Rape; 5.6050 kg/ha)
75 to 100%: inhibition at 11200 g/ha (Annual Bluegrass) | inhibition at 11200 g/ha (Indian Mustard) | inhibition at 11200 g/ha (Seedling Johnsongrass) | inhibition at 11200 g/ha (Wild Buckwheat)
1: plant injury rating, Hese (Hese; 0.0701 kg/ha)
2: plant injury rating, Vele (Vele; 1.1210 kg/ha) | plant injury rating, Cotz (Cotz; 5.6050 kg/ha) | plant injury rating, Jiwe (Jiwe; 0.0701 kg/ha) | plant injury rating, Jiwe (Jiwe; 0.2803 kg/ha) | plant injury rating, Rape (Rape; 0.2803 kg/ha)
0: plant injury rating, Prmi (Prmi; 0.0701 kg/ha) | plant injury rating, Prmi (Prmi; 0.2803 kg/ha) | plant injury rating, Prmi (Prmi; 1.1210 kg/ha) | plant injury rating, Prmi (Prmi; 5.6050 kg/ha) | plant injury rating, Rice (Rice; 0.0701 kg/ha) | plant injury rating, Rice (Rice; 0.2803 kg/ha) | plant injury rating, Rice (Rice; 1.1210 kg/ha) | plant injury rating, Rice (Rice; 5.6050 kg/ha) | plant injury rating, Vele (Vele; 0.0701 kg/ha) | plant injury rating, Vele (Vele; 0.2803 kg/ha) | plant injury rating, Wibw (Wibw; 0.0701 kg/ha) | plant injury rating, Wibw (Wibw; 0.2803 kg/ha) | plant injury rating, Wibw (Wibw; 1.1210 kg/ha) | plant injury rating, Wibw (Wibw; 5.6050 kg/ha) | plant injury rating, Cotz (Cotz; 0.0701 kg/ha) | plant injury rating, Cotz (Cotz; 0.2803 kg/ha) | plant injury rating, Cotz (Cotz; 1.1210 kg/ha) | plant injury rating, Rape (Rape; 0.0701 kg/ha)

COC(=O)c1c(O)nc(C(F)(F)F)c(C(=O)OC)c1CC(C)C [Compound 1, 3,5-pyridinedicarboxylic acid, 2-hydroxy-4-(2-methylpropyl)-6-(trifluoromethyl)-, dimethyl ester]
0: plant injury rating, Prmi (Prmi; 0.0701 kg/ha) | plant injury rating, Prmi (Prmi; 0.2803 kg/ha) | plant injury rating, Rice (Rice; 0.0701 kg/ha) | plant injury rating, Rice (Rice; 0.2803 kg/ha) | plant injury rating, Rice (Rice; 1.1210 kg/ha) | plant injury rating, Wibw (Wibw; 0.0701 kg/ha) | plant injury rating, Cotz (Cotz; 0.0701 kg/ha) | plant injury rating, Jiwe (Jiwe; 0.0701 kg/ha)
3: plant injury rating, Prmi (Prmi; 5.3808 kg/ha)
2 and 1: plant injury rating, Jiwe (Jiwe; 0.2803 kg/ha)
4 and 3: plant injury rating, Jiwe (Jiwe; 5.3808 kg/ha)
2: plant injury rating, Hese (Hese; 0.2803 kg/ha) | plant injury rating, Hese (Hese; 1.1210 kg/ha) | plant injury rating, Prmi (Prmi; 1.1210 kg/ha) | plant injury rating, Vele (Vele; 0.2803 kg/ha) | plant injury rating, Vele (Vele; 1.1210 kg/ha) | plant injury rating, Wibw (Wibw; 1.1210 kg/ha) | plant injury rating, Jiwe (Jiwe; 1.1210 kg/ha)
1: plant injury rating, Hese (Hese; 0.0701 kg/ha) | plant injury rating, Vele (Vele; 0.0701 kg/ha) | plant injury rating, Wibw (Wibw; 0.2803 kg/ha) | plant injury rating, Rape (Rape; 0.0701 kg/ha)

COC(=O)c1c(OC)nc(C(F)(F)F)c(C2=NCCCS2)c1CC(C)C [Compound 98, 3-pyridinecarboxylic acid, 5-(5,6-dihydro-4H-1,3-thiazin-2-yl)-2-methoxy-4-(2-methylpropyl)-6-(trifluoromethyl)-, methyl ester]
3: plant injury rating, Hese (Hese; 5.6050 kg/ha) | plant injury rating, Vele (Vele; 5.6050 kg/ha) | plant injury rating, Wibw (Wibw; 5.6050 kg/ha) | plant injury rating, Jiwe (Jiwe; 1.1210 kg/ha) | plant injury rating, Jiwe (Jiwe; 5.6050 kg/ha) | plant injury rating, Rape (Rape; 5.6050 kg/ha)
0: plant injury rating, Prmi (Prmi; 0.0701 kg/ha) | plant injury rating, Rice (Rice; 0.0701 kg/ha) | plant injury rating, Rice (Rice; 0.2803 kg/ha) | plant injury rating, Rice (Rice; 1.1210 kg/ha) | plant injury rating, Rice (Rice; 5.6050 kg/ha) | plant injury rating, Wibw (Wibw; 0.0701 kg/ha) | plant injury rating, Wibw (Wibw; 0.2803 kg/ha) | plant injury rating, Cotz (Cotz; 0.0701 kg/ha) | plant injury rating, Cotz (Cotz; 0.2803 kg/ha) | plant injury rating, Rape (Rape; 0.0701 kg/ha) | plant injury rating, Rape (Rape; 0.2803 kg/ha)
2: plant injury rating, Hese (Hese; 0.2803 kg/ha) | plant injury rating, Hese (Hese; 1.1210 kg/ha) | plant injury rating, Prmi (Prmi; 5.6050 kg/ha) | plant injury rating, Vele (Vele; 0.2803 kg/ha) | plant injury rating, Vele (Vele; 1.1210 kg/ha) | plant injury rating, Cotz (Cotz; 5.6050 kg/ha) | plant injury rating, Jiwe (Jiwe; 0.0701 kg/ha) | plant injury rating, Jiwe (Jiwe; 0.2803 kg/ha)
75 to 100%: inhibition at 11200 g/ha (Annual Bluegrass) | inhibition at 11200 g/ha (Indian Mustard) | inhibition at 11200 g/ha (Seedling Johnsongrass) | inhibition at 11200 g/ha (Wild Buckwheat)
1: plant injury rating, Hese (Hese; 0.0701 kg/ha) | plant injury rating, Prmi (Prmi; 0.2803 kg/ha) | plant injury rating, Vele (Vele; 0.0701 kg/ha) | plant injury rating, Wibw (Wibw; 1.1210 kg/ha) | plant injury rating, Cotz (Cotz; 1.1210 kg/ha) | plant injury rating, Rape (Rape; 1.1210 kg/ha)

COC(=O)c1c(OC)nc(C(F)(F)F)c(C(=O)NCCCBr)c1CC(C)C [Compound 97, 3-pyridinecarboxylic acid, 5-[[(3-bromopropyl)amino)carbonyl]-2-methoxy-4-(2-methylpropyl)-6-(trifluoromethyl)-, methyl ester]
1: plant injury rating, Jiwe (Jiwe; 5.6050 kg/ha)
0: plant injury rating, Hese (Hese; 0.0701 kg/ha) | plant injury rating, Hese (Hese; 0.2803 kg/ha) | plant injury rating, Hese (Hese; 1.1210 kg/ha) | plant injury rating, Hese (Hese; 5.6050 kg/ha) | plant injury rating, Prmi (Prmi; 0.0701 kg/ha) | plant injury rating, Prmi (Prmi; 0.2803 kg/ha) | plant injury rating, Prmi (Prmi; 1.1210 kg/ha) | plant injury rating, Prmi (Prmi; 5.6050 kg/ha) | plant injury rating, Rice (Rice; 0.0701 kg/ha) | plant injury rating, Rice (Rice; 0.2803 kg/ha) | plant injury rating, Rice (Rice; 1.1210 kg/ha) | plant injury rating, Rice (Rice; 5.6050 kg/ha) | plant injury rating, Vele (Vele; 0.0701 kg/ha) | plant injury rating, Vele (Vele; 0.2803 kg/ha) | plant injury rating, Vele (Vele; 1.1210 kg/ha) | plant injury rating, Vele (Vele; 5.6050 kg/ha) | plant injury rating, Wibw (Wibw; 0.0701 kg/ha) | plant injury rating, Wibw (Wibw; 0.2803 kg/ha) | plant injury rating, Wibw (Wibw; 1.1210 kg/ha) | plant injury rating, Wibw (Wibw; 5.6050 kg/ha) | plant injury rating, Cotz (Cotz; 0.0701 kg/ha) | plant injury rating, Cotz (Cotz; 0.2803 kg/ha) | plant injury rating, Cotz (Cotz; 1.1210 kg/ha) | plant injury rating, Cotz (Cotz; 5.6050 kg/ha) | plant injury rating, Jiwe (Jiwe; 0.0701 kg/ha) | plant injury rating, Jiwe (Jiwe; 0.2803 kg/ha) | plant injury rating, Jiwe (Jiwe; 1.1210 kg/ha) | plant injury rating, Rape (Rape; 0.0701 kg/ha) | plant injury rating, Rape (Rape; 0.2803 kg/ha) | plant injury rating, Rape (Rape; 1.1210 kg/ha) | plant injury rating, Rape (Rape; 5.6050 kg/ha)
75 to 100%: inhibition at 11200 g/ha (Annual Bluegrass) | inhibition at 11200 g/ha (Indian Mustard) | inhibition at 11200 g/ha (Seedling Johnsongrass)
50 to 74%: inhibition at 11200 g/ha (Wild Buckwheat)
